Reference: patent publication US10543171B2, “Dermal drug delivery using amphiphilic dendron-coil micelles” (THE BOARD OF TRUSTEES OF THE UNIVERSITY OF ILLINOIS, priority 2013, dated 2020)
Entries after “also recorded” stand apart in the source; their conditions may differ. Blank lines part the entries; values can stand above or below the compound they belong to.

Assays:
MDA-MB-231 cells = test: in vitro anti-proliferation assay (MTS) against MDA-MB-231; format: cell-based; settings: ER-negative; comparable drug concentrations; listed as free EDX
[1] = 25° C.; cited from earlier work
folate receptors (FR) = settings: read-out: affinity for FR (KD); cited from earlier work
[2] = skin deposition of Cou6 from two-dye dendron micelles (CLSM, spectrofluorometer); format: in vitro ADME, mouse
Description: To prepare two-dye dendron micelles, two milligrams of acetylated, RHO-labeled PDC (PDC-RHO-Ac) was combined with 10 mg of unlabeled surface modified PDC in 1.2 mL DMF, and 2% (wt %) of Cou6 was added to the mixture. The materials were fully dissolved and mixed by brief vortexing followed by gentle shaking for 2 h. The Cou6-encapsulated, RHO-labeled dendron micelles were prepared by the dialysis method, and the solid material was obtained by lyophilization as described above.
SKH-1 hairless mouse skin was exposed to the Cou6-loaded micelles with different surfaces for 24 h in the Franz cell setup. The skin area that was exposed to the treatment was carefully collected, rinsed twice with ddH2O for 10 min and embedded into cryomolds (Tissue-Tek®, Sakura Finetek USA, Inc., Torrance, Calif.). Skin was cryosectioned into 80 um-thick slices and placed on anti-frost glass slides. The slides were then fixed by 10% neutral buffered formalin for 10 min at RT and rinsed with ddH2O. The skin slides were mounted with antiphotobleaching mounting media with DAPI (Vector Laboratory Inc., Burlingame, Calif.) and covered with glass cover slips. […]
After the two-dye micelle experiment, the fluorescence intensity in the donor and receiver solutions, as well as skin extracts were detected using a SoftMax Pro spectrofluorometer (Spectra MAX, Molecular Devices Inc., Sunnyvale, Calif.). […]

Structure (SMILES): CC/C(=C(\c1ccc(O)cc1)c1ccc(OCCNC)cc1)c1ccccc1 [EDX, 4-hydroxy-N-desmethyl tamoxifen]
- anti-proliferative effect / cytotoxicity against MDA-MB-231 cells (MDA-MB-231 cells): neither free EDX nor EDX-loaded micelles had significant cytotoxicity; also recorded: Neither free EDX nor EDX-loaded DMs exhibited significant anti-proliferative effect
- partition coefficient (log P) [1]: 6.01

Structure (SMILES): Nc1nc2ncc(CNc3ccc(C(=O)N[C@@H](CCC(=O)O)C(=O)O)cc3)nc2c(=O)[nH]1 [FA, folic acid]
- Kd (folate receptors (FR)): ~0.1 nM

- Cou6 delivered into skin (skin extract) ([2]; Cou6-encapsulated, RHO-labeled micelles or free Cou6 in ethanol, mouse skin): 26.48±2.51%
Structure (SMILES): CCN(CC)c1ccc2cc(-c3nc4ccccc4s3)c(=O)oc2c1 [free Cou6, Coumarin-6]
- Cou6 distribution in skin layers (CLSM) ([2]; mouse skin cross-sections after Franz cell experiment): could not diffuse efficiently into the skin layers
